Experimental data as given in US6461997B1, “Triazole sulfones having herbicidal activity” (Monsanto Technology LLC, priority 1999, dated 2002).

Columns and labels:
[1] = test system: VERPE (creeping speedwell); assay: Pre-emergence herbicidal activity, cool season; type: in vivo, Veronica persicaria; conditions: lowest tested rate with 80% or greater inhibition; rates 300, 100, 30, 10 g/ha; about 14 days
Outline: (§1)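 GR80 values derive from percent inhibition relative to untreated plants, read roughly 14 days after sowing and pre-emergence soil-surface treatment (compound in 50:50 acetone/water; rates typically 10, 30, 100, 300 g/ha). Warm-season weeds grew at 30/21° C day/night, cool-season ones at 18/13° C; an asterisk marks activity without reaching 80% at the highest rate.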

[2] = test system: AGRRE (quackgrass (seedling)); assay: Pre-emergence herbicidal activity, cool season; type: in vivo, Elymus repens; conditions: GR80 = lowest tested rate (300, 100, 30, 10 g/ha) with 80% or greater inhibition; approx. 14 days after treating; 18/13° C.
Description: (§2) Tables 5 to 8 summarize results of tests conducted as described below to determine the pre-emergence herbicidal activity, in the form of a GR80 value, of illustrative compounds of this invention. […] Compounds of the invention were typically applied at rates of 300, 100, 30, and 10 g/ha. Where herbicidal activity was evident but 80% inhibition was not achieved at the highest rate tested, an asterisk (*) is shown in the following tables.
(§3) The pre-emergence tests were conducted by the following procedure. Topsoil was sieved to pass through a 1.27 cm screen. Fertilizer was added to the topsoil and the mixture was then sterilized by heating. The topsoil mixture was placed in a pot and compacted to a depth of 1.0 to 1.25 cm from the top of the pot. Seeds of each of several monocotyledonous and dicotyledonous annual plant species were placed on top of the soil. Additional soil was subsequently placed over the seeds to level-fill the pot. A known amount of each test compound dissolved or suspended in an appropriate organic solvent was diluted with a 50:50 mix of acetone and water and applied to the surface of the soil. After treatment the plants were placed in a greenhouse where they received 0.64 cm of overhead irrigation. All subsequent watering consisted of a light overhead mist and/or subirrigation as needed for germination and growth. Tables 5 and 6 below relate to warm season plant species which were placed after pre-emergence treatment in a greenhouse with a 30/21° C. day/night temperature regime. Tables 7 and 8 below relates to cool season plant species placed after pre-emergence treatment in a greenhouse or growth chamber with an 18/13° C. day/night temperature regime.
(§4) Approximately 14 days after planting and treating, the plants were observed and herbicidal efficacy recorded as percent inhibition by comparison with untreated plants.
(§5) The plant species usually regarded as weeds which were utilized in the tests are identified in the tables below according to the following legend, in which “d” indicates a dicotyledonous species and “m” a monocotyledonous species. All monocotyledonous species included in the tests herein are grasses.

[3] = test system: PANMI (wild proso millet); assay: Pre-emergence herbicidal activity, warm season; type: in vivo, Panicum miliaceum; conditions: GR80 = lowest tested rate (300, 100, 30, 10 g/ha) with 80% or greater inhibition; approx. 14 days after treating; 30/21° C.
Outline: (§6)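 Activity is expressed as the rate giving 80% inhibition, with 300, 100, 30 and 10 g/ha typically tested. An asterisk marks activity short of 80% at the top rate. Warm-season grasses were held at 30/21 °C; cool-season blackgrass and wild buckwheat at 18/13 °C; scoring at about 14 days.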

SINAR (wild mustard) = assay: Pre-emergence herbicidal activity, cool season; type: in vivo, Sinapis arvensis; conditions: lowest tested rate with 80% or greater inhibition; rates 300, 100, 30, 10 g/ha; about 14 days
Outline: as §1

SOLNI (black nightshade) = assay: Pre-emergence herbicidal activity, warm season; type: in vivo, Solanum nigrum; conditions: GR80 = lowest tested rate (300, 100, 30, 10 g/ha) with 80% or greater inhibition; approx. 14 days after treating; 30/21° C.
Outline: as §1

[4] = test system: GALAP (catchweed bedstraw); assay: Pre-emergence herbicidal activity, cool season; type: in vivo, Galium aparine; conditions: lowest tested rate with 80% or greater inhibition; rates 300, 100, 30, 10 g/ha; about 14 days
Outline: as §1

AMARE (redroot pigweed) = assay: Pre-emergence herbicidal activity, warm season; type: in vivo, Amaranthus retroflexus; conditions: GR80 = lowest tested rate (300, 100, 30, 10 g/ha) with 80% or greater inhibition; approx. 14 days after treating; 30/21° C.
Outline: as §1

[5] = test system: BRAPP (broadleaf signalgrass); assay: Pre-emergence herbicidal activity, warm season; type: in vivo, Brachiaria platyphylla; conditions: GR80 = lowest tested rate (300, 100, 30, 10 g/ha) with 80% or greater inhibition; approx. 14 days after treating; 30/21° C.
Outline: as §1

[6] = test system: CIRAR (canada thistle (seedling)); assay: Pre-emergence herbicidal activity, warm season; type: in vivo, Cirsium arvense; conditions: GR80 = lowest tested rate (300, 100, 30, 10 g/ha) with 80% or greater inhibition; approx. 14 days after treating; 30/21° C.
Outline: as §1

DIGSA (large crabgrass) = assay: Pre-emergence herbicidal activity, warm season; type: in vivo, Digitaria sanguinalis; conditions: GR80 = lowest tested rate (300, 100, 30, 10 g/ha) with 80% or greater inhibition; approx. 14 days after treating; 30/21° C.
Outline: as §6

[7] = test system: LAMPU (purple deadnettle); assay: Pre-emergence herbicidal activity, cool season; type: in vivo, Lamium purpureum; conditions: lowest tested rate with 80% or greater inhibition; rates 300, 100, 30, 10 g/ha; about 14 days
Outline: as §1

KCHSC (kochia) = assay: Pre-emergence herbicidal activity, cool season; type: in vivo, Kochia scoparia; conditions: lowest tested rate with 80% or greater inhibition; rates 300, 100, 30, 10 g/ha; about 14 days
Description: as §2, §3, §4, §5

STEME (common chickweed) = assay: Pre-emergence herbicidal activity, cool season; type: in vivo, Stellaria media; conditions: lowest tested rate with 80% or greater inhibition; rates 300, 100, 30, 10 g/ha; about 14 days
Outline: as §1

[8] = test system: AGSST (creeping bentgrass); assay: Pre-emergence herbicidal activity, cool season; type: in vivo, Agrostis stolonifera; conditions: GR80 = lowest tested rate (300, 100, 30, 10 g/ha) with 80% or greater inhibition; approx. 14 days after treating; 18/13° C.
Outline: as §1

POLCO (wild buckwheat) = assay: Pre-emergence herbicidal activity, cool season; type: in vivo, Polygonum convolvulus; conditions: lowest tested rate with 80% or greater inhibition; rates 300, 100, 30, 10 g/ha; about 14 days
Outline: as §6

SETVI (green foxtail) = assay: Pre-emergence herbicidal activity, cool season; type: in vivo, Setaria viridis; conditions: GR80 = lowest tested rate (300, 100, 30, 10 g/ha) with 80% or greater inhibition; approx. 14 days after treating; 18/13° C.
Outline: as §1

SETFA (giant foxtail) = assay: Pre-emergence herbicidal activity, warm season; type: in vivo, Setaria faberi; conditions: GR80 = lowest tested rate (300, 100, 30, 10 g/ha) with 80% or greater inhibition; approx. 14 days after treating; 30/21° C.
Outline: as §1

ECHCG (barnyardgrass) = assay: Pre-emergence herbicidal activity, warm season; type: in vivo, Echinochloa crus-galli; conditions: GR80 = lowest tested rate (300, 100, 30, 10 g/ha) with 80% or greater inhibition; approx. 14 days after treating; 30/21° C.
Outline: as §1

SASKR (russian thistle) = assay: Pre-emergence herbicidal activity, cool season; type: in vivo, Salsola kali; conditions: lowest tested rate with 80% or greater inhibition; rates 300, 100, 30, 10 g/ha; about 14 days
Outline: as §1

[9] = test system: CHEAL (common lambsquarters); assay: Pre-emergence herbicidal activity, warm season; type: in vivo, Chenopodium album; conditions: GR80 = lowest tested rate (300, 100, 30, 10 g/ha) with 80% or greater inhibition; approx. 14 days after treating; 30/21° C.
Outline: as §1

ALOMY (blackgrass) = assay: Pre-emergence herbicidal activity, cool season; type: in vivo, Alopecurus myosuroides; conditions: GR80 = lowest tested rate (300, 100, 30, 10 g/ha) with 80% or greater inhibition; approx. 14 days after treating; 18/13° C.
Outline: as §6

[10] = test system: SORHA (johnsongrass (seedling)); assay: Pre-emergence herbicidal activity, warm season; type: in vivo, Sorghum halepense; conditions: GR80 = lowest tested rate (300, 100, 30, 10 g/ha) with 80% or greater inhibition; approx. 14 days after treating; 30/21° C.
Outline: as §1

PANDI (fall panicum) = assay: Pre-emergence herbicidal activity, warm season; type: in vivo, Panicum dichotomiflorum; conditions: GR80 = lowest tested rate (300, 100, 30, 10 g/ha) with 80% or greater inhibition; approx. 14 days after treating; 30/21° C.
Outline: as §1

LOLMG (annual ryegrass) = assay: Pre-emergence herbicidal activity, cool season; type: in vivo, Lolium multiflorum; conditions: GR80 = lowest tested rate (300, 100, 30, 10 g/ha) with 80% or greater inhibition; approx. 14 days after treating; 18/13° C.
Outline: as §1

BROTE (downy brome) = assay: Pre-emergence herbicidal activity, cool season; type: in vivo, Bromus tectorum; conditions: GR80 = lowest tested rate (300, 100, 30, 10 g/ha) with 80% or greater inhibition; approx. 14 days after treating; 18/13° C.
Description: as §2, §3, §4, §5

SMILES | Pre-emergence activity GR80, VERPE [1] [g/ha] | Pre-emergence activity (GR80) AGRRE [2] | Pre-emergence activity (GR80) PANMI [3] [g/ha] | Pre-emergence activity GR80, SINAR (SINAR (wild mustard)) [g/ha] | Pre-emergence activity (GR80) SOLNI (SOLNI (black nightshade)) [g/ha] | Pre-emergence activity GR80, GALAP [4] | Pre-emergence activity GR80, LAMPU [7] | Pre-emergence activity GR80, STEME (STEME (common chickweed)) | Pre-emergence activity (GR80) AGSST [8] [g/ha] | Pre-emergence activity GR80, POLCO (POLCO (wild buckwheat)) | Pre-emergence activity (GR80) SETVI (SETVI (green foxtail)) [g/ha] | Pre-emergence activity (GR80) SETFA (SETFA (giant foxtail)) [g/ha] | Pre-emergence activity (GR80) ECHCG (ECHCG (barnyardgrass)) [g/ha] | Pre-emergence activity GR80, SASKR (SASKR (russian thistle)) [g/ha] | Pre-emergence activity (GR80) ALOMY (ALOMY (blackgrass)) | also measured
CCN(CC)C(=O)n1cnc(S(=O)(=O)C(F)(F)c2ccccc2)n1 [Example 5] | 100 | * (activity observed, at least at highest rate, but <80% inhibition) | 100 | 100 | 300 | [empty] | [empty] | [empty] | 30 | [empty] | 100 | 100 | 300 | 300 | * (activity observed, at least at highest rate, but <80% inhibition) | Pre-emergence activity (GR80) AMARE (AMARE (redroot pigweed)): 100 g/ha; Pre-emergence activity (GR80) BRAPP [5]: 300 g/ha; Pre-emergence activity (GR80) CIRAR [6]: 100 g/ha; Pre-emergence activity (GR80) DIGSA (DIGSA (large crabgrass)): 100 g/ha; Pre-emergence activity GR80, KCHSC (KCHSC (kochia)): [empty]; Pre-emergence activity (GR80) CHEAL [9]: 300 g/ha; Pre-emergence activity (GR80) SORHA [10]: 100 g/ha
CCSC(F)(F)S(=O)(=O)c1ncn(C(=O)N(C)CCOC)n1 [Example 52] | 30 | 100 g/ha | 100 | 300 | 300 | [empty] | [empty] | [empty] | 300 | [empty] | 300 | 300 | 300 | 100 | 300 g/ha | Pre-emergence activity (GR80) PANDI (PANDI (fall panicum)): 30 g/ha; Pre-emergence activity (GR80) LOLMG (LOLMG (annual ryegrass)): 300 g/ha; Pre-emergence activity (GR80) BROTE (BROTE (downy brome)): 300 g/ha
